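Five concentrations, 48 hours, 96-well plates. Abbreviation: GI50, concentration required for 50% inhibition of growth.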 Activity calls are given as the source filed them. No stated cut-off is given here; in the data, active = GI50 up to about 1.1 µM and inactive = higher.
Columns and labels:
Experiment in all cases: NCI tumour cell line growth inhibition, 48 h
[1] = test system: SK-MEL-2
[2] = test system: SN12C
[3] = test system: T47D
[4] = test system: HL-60
[5] = test system: SF-295
[6] = test system: 786-0
[7] = test system: DU-145
[8] = test system: OVCAR-8
[9] = test system: MDA-MB-435
[10] = test system: LOX IMVI
[11] = test system: SF-539
[12] = test system: HCC 2998
[13] = test system: KM12
[14] = test system: MDA-N
[15] = test system: MOLT-4
[16] = test system: Malme-3M
[17] = test system: CCRF-CEM
[18] = test system: SF-268
[19] = test system: Hs-578T
[20] = test system: NCI-H522

Measured: GI50

CC1=CC(=O)/C(=C/Nc2nc(-c3cccc([N+](=O)[O-])c3)cs2)C(=O)O1
inactive: [1] > 100 µM | [2] 66.5 µM | [3] 77.1 µM | [4] 13.6 µM | [5] > 100 µM | [6] 30.8 µM | [7] > 100 µM | [8] > 100 µM | [9] 75.2 µM | [10] 39.2 µM | [11] 69 µM | [12] 31.9 µM | [13] 47.2 µM

CCSc1n/c(=C\c2ccco2)c2nncn12
inactive: [14] > 100 µM | [1] > 100 µM | [15] > 100 µM | [2] > 100 µM | [16] > 100 µM | [4] > 100 µM | [5] > 100 µM | [17] > 100 µM | [18] > 100 µM | [19] > 100 µM | [6] > 100 µM | [7] > 100 µM | [8] > 100 µM | [9] > 100 µM | [10] > 100 µM | [13] > 100 µM | [20] > 100 µM

C(=N/c1ccccc1C1SCCCS1)/c1ccccc1
inactive: [14] > 100 µM | [1] > 100 µM | [15] > 100 µM | [2] > 100 µM | [16] > 100 µM | [4] 82.6 µM | [5] > 100 µM | [17] > 100 µM | [18] > 100 µM | [19] > 100 µM | [6] > 100 µM | [7] > 100 µM | [8] > 100 µM | [9] > 100 µM | [10] > 100 µM | [11] > 100 µM | [12] > 100 µM | [13] > 100 µM | [20] > 100 µM

CN(C(=O)c1ccc2c(c1)sc1c(=O)n(C)c3ccccc3c12)c1ccccc1
inactive: [14] > 100 µM | [1] > 100 µM | [15] > 100 µM | [2] > 100 µM | [3] > 100 µM | [16] > 100 µM | [4] > 100 µM | [5] > 100 µM | [17] > 100 µM | [6] 59.7 µM | [7] > 100 µM | [8] > 100 µM | [9] > 100 µM | [10] > 100 µM | [11] > 100 µM | [12] > 100 µM | [13] > 100 µM | [20] > 100 µM

O=C(Nc1cc(Cl)c(Cl)cc1Cl)C(=O)C1C=CCS1(=O)=O (stereo not given)
inactive: [1] > 100 µM | [15] > 100 µM | [2] 93.5 µM | [16] > 100 µM | [4] > 100 µM | [5] > 100 µM | [17] > 100 µM | [18] > 100 µM | [6] > 100 µM | [8] > 100 µM | [10] > 100 µM | [11] > 100 µM | [12] > 100 µM | [13] > 100 µM | [20] > 100 µM

CC1=CCC(C(C)(C)NC(=O)c2ccccc2)C/C1=N/O (stereo not given)
inactive: [14] > 100 µM | [15] > 100 µM | [2] > 100 µM | [3] > 100 µM | [4] > 100 µM | [5] > 100 µM | [17] > 100 µM | [18] > 100 µM | [6] > 100 µM | [7] > 100 µM | [8] > 100 µM | [9] > 100 µM | [10] > 100 µM | [11] > 100 µM | [12] > 100 µM | [13] > 100 µM | [20] > 100 µM

Cc1ccc(C(=O)O)cc1S(=O)(=O)Nn1cnc2ccc(S(=O)(=O)Nc3ccccc3C(=O)O)cc2c1=O
inactive: [14] 47.3 µM | [1] 61 µM | [15] > 100 µM | [2] > 100 µM | [16] > 100 µM | [4] > 100 µM | [5] 26.1 µM | [17] > 100 µM | [18] > 100 µM | [19] > 100 µM | [6] > 100 µM | [7] > 100 µM | [8] > 100 µM | [9] > 100 µM | [10] > 100 µM | [11] > 100 µM | [12] > 100 µM | [13] 10.9 µM | [20] > 100 µM

O=C(/N=N/c1ccc([N+](=O)[O-])cc1)NNc1ccc([N+](=O)[O-])cc1
inactive: [14] 11.6 µM | [1] 13.3 µM | [15] 11 µM | [2] 13.3 µM | [3] 9.14 µM | [16] 19 µM | [4] 11.9 µM | [17] 15.8 µM | [18] 21.8 µM | [6] 13.7 µM | [7] 5.74 µM | [8] 17.2 µM | [9] 12.8 µM | [10] 11.2 µM | [12] 14.2 µM | [20] 17.7 µM

Cc1cc(C)nc(NS(=O)(=O)c2ccc(NC(=O)c3c4ccccc4nc4ccccc34)cc2)n1
inactive: [14] > 100 µM | [1] > 100 µM | [15] > 100 µM | [2] > 100 µM | [16] 17.4 µM | [5] > 100 µM | [17] > 100 µM | [18] > 100 µM | [6] 49 µM | [7] 93.1 µM | [8] 47.9 µM | [9] > 100 µM | [10] 81.1 µM | [11] > 100 µM | [12] > 100 µM | [13] 47 µM | [20] 64.3 µM

Cc1cc(N(CCC#N)CCC#N)ccc1/C=C1N=C(/C=C/c2ccccc2)OC(=O)N\1
inactive: [1] > 100 µM | [15] > 100 µM | [2] > 100 µM | [16] > 100 µM | [4] > 100 µM | [5] 7.41 µM | [17] > 100 µM | [18] > 100 µM | [6] 37.8 µM | [8] > 100 µM | [10] > 100 µM | [11] > 100 µM | [12] > 100 µM | [13] > 100 µM | [20] > 100 µM

CCO/C=C1\N=C(c2ccccc2Br)OC1=O
inactive: [1] > 100 µM | [15] > 100 µM | [2] > 100 µM | [16] > 100 µM | [4] > 100 µM | [5] > 100 µM | [17] > 100 µM | [18] > 100 µM | [6] > 100 µM | [8] > 100 µM | [10] > 100 µM | [11] > 100 µM | [12] > 100 µM | [13] > 10 µM | [20] > 100 µM

COc1ccc(NC(=O)CCc2cc(C(C)(C)C)[nH]n2)cc1
inactive: [1] > 100 µM | [15] > 100 µM | [2] > 100 µM | [16] > 100 µM | [4] > 100 µM | [5] > 100 µM | [17] > 100 µM | [18] > 100 µM | [6] > 100 µM | [8] > 100 µM | [10] > 100 µM | [11] > 100 µM | [12] > 100 µM | [13] > 100 µM | [20] 74 µM

CSc1ncnc2c1cnn2Cc1cn(COCC(O)CO)nn1 (stereo not given)
inactive: [14] > 100 µM | [1] > 100 µM | [15] > 100 µM | [2] > 100 µM | [3] > 100 µM | [4] > 100 µM | [5] > 100 µM | [17] > 100 µM | [18] 22.8 µM | [6] > 100 µM | [7] > 100 µM | [8] > 100 µM | [9] > 100 µM | [10] > 100 µM | [11] > 100 µM | [12] > 100 µM | [13] > 100 µM | [20] 21.2 µM

COc1cc(C(C)c2cc3c(cc2OCCCCCOc2cc4c(cc2C(C)c2cc(OC)c(OC)c(OC)c2)OCO4)OCO3)cc(OC)c1OC (stereo not given)
inactive: [1] > 100 µM | [15] > 100 µM | [2] > 100 µM | [16] > 100 µM | [4] > 100 µM | [5] > 100 µM | [17] > 100 µM | [18] > 100 µM | [6] > 100 µM | [8] > 100 µM | [10] > 100 µM | [11] > 100 µM | [12] > 100 µM | [13] > 100 µM | [20] > 100 µM

Cc1nc2c(O)cc3c4c(n(Cc5ccccc5)c3c2nc1C)C(=O)CCC4
inactive: [14] 45.9 µM | [1] 10.1 µM | [15] > 100 µM | [2] > 100 µM | [16] 27.8 µM | [4] > 100 µM | [5] 34 µM | [17] > 100 µM | [18] 4.71 µM | [19] 14.4 µM | [6] 15.1 µM | [7] 7.13 µM | [8] 12.2 µM | [9] > 100 µM | [10] 64.1 µM | [11] 17.5 µM | [12] > 100 µM | [13] > 100 µM

COC(=O)C(COC(=O)/C=C/c1ccc(OC(C)=O)c(OC(C)=O)c1)OC(=O)/C=C/c1ccc(OC(C)=O)c(OC(C)=O)c1 (stereo not given)
inactive: [14] 9.73 µM | [1] 12.2 µM | [15] 1.95 µM | [2] 14.6 µM | [16] 15.5 µM | [5] 14.3 µM | [17] 3.38 µM | [18] 12.4 µM | [19] 13.7 µM | [6] 11.8 µM | [7] 12.1 µM | [8] 11.8 µM | [9] 11 µM | [10] 5.16 µM | [11] 10.8 µM | [12] 17.5 µM | [13] 12 µM | [20] 5.18 µM
